Data as given in patent publication US20110212958A1, “FATTY ACID RALOXIFENE DERIVATIVES AND THEIR USES” (CATABASIS PHARMACEUTICALS, INC., priority 2010, published 2011).
pIC50: −log10 of the molar value.

Test system: NF-κB
Assay: NF-κB luciferase reporter assay in LPS-stimulated RAW 264.7 macrophages
Type: cell-based
Conditions: Mus musculus, RAW264.7; RAW 264.7 cells with 3× NFkB response element luciferase reporter; 2 hour pretreatment, 200 ng/ml LPS for 3 hours; 6 dose point titrations in triplicate
Description: RAW 264.7 cells stably expressing a 3× NFkB response elemement-drive luciferase reporter were seeded into 96 well plates in sera-free medium (Optimem) 18 hours prior to compound application. Compounds of the invention were prepared by first making 100 mM stock solutions in EtOH. Stock solutions were then diluted 1:100 in low LPS FBS (Gemini BenchMark 100-106), mixed vigorously and allowed to incubate at room temperature for 30 minutes. 1:2 serial dilutions were then made in FBS supplemented with 1% EtOH, mixed vigorously, and again allowed to incubate at room temperature for 30 minutes before adding to RAW 264.7 reporter cells (final concentrations: 10% FBS, 100 uM highest compound dilution, 0.1% EtOH) for a 2 hour pretreatment prior to stimulation with LPS. Cells were then stimulated with 200 ng/ml LPS or vehicle control for 3 hours in the presence of the compounds of the invention. A set of six vehicles was left unstimulated with LPS in order to measure the assay floor. […] After the 3 h incubation period with LPS, cell viability was measured by reading fluorescence (excitation 550 nm, emission 595 nm) with a Perkin Elmer Victor V plate reader. […] Luciferase activity was measured with the Perkin Elmer Victor V plate reader. NF-κB activity was expressed as a percent of the vehicle control wells (stimulated with LPS). […]

SMILES: CC/C=C\C/C=C\C/C=C\C/C=C\C/C=C\C/C=C\CCC(=O)NCCNC(=O)Oc1ccc2c(C(=O)c3ccc(OCCN4CCOCC4)cc3)c(-c3ccc(O)cc3)sc2c1 [III-4, 2-(4-hydroxyphenyl)-3-(4-(2-morpholinoethoxy)benzoyl)benzo[b]thiophen-6-yl 2-(4Z,7Z,10Z,13Z,16Z,19Z)-docosa-4,7,10,13,16,19-hexaenamidoethylcarbamate]
- pIC50: ~4.30
